Source: US6177103A, “Processes to generate submicron particles of water-insoluble compounds” (RTP Pharma, Inc., priority 1999, dated 2001)
Blank lines part the entries; values can stand above or below the compound they belong to.

How the values were obtained:
[1] = Particle sizing by photon correlation spectroscopy, fenofibrate microparticles by RELGS process (Example 2); type: physicochemical; details: Lipoid E-80 and Tween-80 in liquefied carbon dioxide at 3000 psi expanded into water, 22° C.
Method: The particle sizing was performed by photon correlation spectroscopy using Submicron Particle Sizer-Autodilute Model 370 (NICOMP Particle Sizing Systems, Santa Barbara, Calif.). This instrument provides number weighted, intensity weighted, and volume weighted particle size distributions as well as multi-modality of the particle size distribution, if present.

[2] = cited from earlier work

mean particle size [1]: about 200 nm
Structure (SMILES): CC(C)OC(=O)C(C)(C)Oc1ccc(C(=O)c2ccc(Cl)cc2)cc1 [Fenofibrate, fenofibrate]

Structure (SMILES): CC1=C(/C=C/C(C)=C/C=C/C(C)=C/C=C/C=C(C)/C=C/C=C(C)/C=C/C2=C(C)CCCC2(C)C)C(C)(C)CCC1 [beta-carotene]
nanoparticle size ([2]; expansion of ethane into a viscous gelatin solution): 300 nm

Structure (SMILES): CC[C@H](C)C(=O)O[C@H]1C[C@@H](C)C=C2C=C[C@H](C)[C@H](CC[C@@H]3C[C@@H](O)CC(=O)O3)[C@H]21 [lovastatin]
particle size ([2]; micro-particles by rapid expansion from liquefied-gas solution in the supercritical region, most particle sizes reported for organic materials): 5-100 micron
